In US20250092065A1, “2-(INDAZOL-5-YL)-6-(PIPERIDIN-4-YL)-1,7-NAPHTHYRIDINE DERIVATIVES AND RELATED COMPOUNDS AS MODULATORS FOR SPLICING NUCLEIC ACIDS AND FOR THE TREATMENT OF PROLIFERATIVE DISEASES” (REMIX THERAPEUTICS INC., priority 2022, published 2025):
Read-outs that look alike come from different tables or passages of the source.

Experiments:
[1] = test system: SMN2 mRNA; assay: RT-qPCR splicing assay, SMN2 mRNA; type: cell-based, human; conditions: Homo sapiens, canonical junction qPCR panel, Table 4; read-out: SMN2 IC50 (decrease in CJ mRNA levels)
In short: (§1)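 Splice switching quantified in compound-treated A673/K562 cells after 24 h exposure (top dose 10 uM, 3-fold steps, ≤0.25% DMSO), using CJ and AJ qPCR assays run at least in duplicate. RQ derived by 2^(−ΔΔCt), then percentage response.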

[2] = test system: Target C; assay: RT-qPCR canonical junction panel assay, Target C mRNA; type: cell-based; conditions: Table 4, read-out: Target C IC50 (decrease in CJ mRNA levels)
In short: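 A673 or K562 cells treated with compound; CJ mRNA quantified by junction-spanning RT-qPCR probe after cDNA synthesis, normalised to GAPDH, GUSB or PPIA and DMSO (2^−ΔΔCt), scaled to set ΔCt assay window; IC50 from 4-parameter fit of CJ decrease.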

[3] = test system: HTT mRNA; assay: RT-qPCR splicing assay, HTT mRNA canonical (CJ) and alternative (AJ) junction; type: cell-based, human; conditions: Homo sapiens; for AC50: HTT alternative junction mRNA, read-out: HTT AJ (increase in AJ mRNA, AC50)
In short: as §1

[4] = test system: K562 cells; assay: Cell Titer Glo 2.0 cell viability (toxicity) assay, K562; conditions: 500 cells/well, 72 hours
[5] = HTT canonical junction mRNA, RT-qPCR, read-out: HTT CJ (decrease in CJ mRNA levels, IC50)
[6] = canonical junction qPCR panel, Table 4, read-out: HTT IC50 (decrease in CJ mRNA levels)

SMILES | IC50 [1] [nM] | IC50 [2] [nM] | IC50 [3, 5] [nM] | IC50 [3, 6] [nM] | AC50 ([3]; RT-qPCR) [nM] | Effect of Exemplary Compounds on Cell Viability, K562 [4]
CNC(=O)c1nc(-c2cc3cn(C)nc3c(C)c2O)nc2ccc(N3CCC(N(C)C)CC3)cc12 [Compound 507, 6-[4-(dimethylamino)piperidin-1-yl]-2-(6-hydroxy-2,7-dimethylindazol-5-yl)-N-methylquinazoline-4-carboxamide] | < 100 | 1000 to 10000 | 100 to 1000 | 100 to 1000 | 1000 to 10000 | A (A represents <100 nM)
CNC(=O)c1nc(-c2cc3cn(C)nc3c(C)c2O)nc2ccc(N3CCC(NC)C3)cc12 (stereo not drawn) [Compound 510, 2-(6-hydroxy-2,7-dimethylindazol-5-yl)-N-methyl-6-[3-(methylamino)pyrrolidin-1-yl]quinazoline-4-carboxamide] | < 100 | 100 to 1000 | < 100 | < 100 | 100 to 1000 | A (A represents <100 nM)
CNC(=O)c1nc(-c2cc3cn(C)nc3c(C)c2O)nc2ccc(N3C[C@@H](C)N[C@@H](C)C3)cc12 [Compound 511, 6-[(3R,5S)-3,5-dimethylpiperazin-1-yl]-2-(6-hydroxy-2,7-dimethylindazol-5-yl)-N-methylquinazoline-4-carboxamide] | < 100 | 1000 to 10000 | 100 to 1000 | 100 to 1000 | 100 to 1000 | A (A represents <100 nM)
CC(=O)c1nc(-c2cc3cn(C)nc3c(F)c2O)nc2ccc(N3CCNCC3)cc12 [Compound 513, 1-(2-(7-fluoro-6-hydroxy-2-methyl-2H-indazol-5-yl)-6-(piperazin-1-yl)quinazolin-4-yl)ethan-1-one 2,2,2-trifluoroacetate] | < 100 | 1000 to 10000 | 1000 to 10000 | 1000 to 10000 | 1000 to 10000 | A (A represents <100 nM)
Cc1c(O)c(-c2ccc3cc(N4CCNCC4)cc(F)c3n2)cc2cn(C)nc12 [Compound 515, 5-[8-fluoro-6-(piperazin-1-yl)quinolin-2-yl]-2,7-dimethylindazol-6-ol] | < 100 | 100 to 1000 | < 100 | < 100 | < 100 | A (A represents <100 nM)
Cn1cc2cc(-c3ccc4cc(N5CCNCC5)cc(F)c4n3)cc(F)c2n1 [Compound 516, 8-fluoro-2-(7-fluoro-2-methylindazol-5-yl)-6-(piperazin-1-yl)quinoline] | < 100 | 100 to 1000 | 100 to 1000 | 100 to 1000 | 100 to 1000 | B (B represents 100-1000 nM)
Cc1c(O)c(-c2ncc3cc(N4CCNCC4)ccc3n2)cc2cn(C)nc12 [Compound 520, 2,7-dimethyl-5-[6-(piperazin-1-yl)quinazolin-2-yl]indazol-6-ol] | < 100 | 1000 to 10000 | 100 to 1000 | 100 to 1000 | 100 to 1000 | B (B represents 100-1000 nM)
Cc1c(O)c(-c2nc(C(=O)O)c3cc(N4CCNCC4)ccc3n2)cc2cn(C)nc12 [Compound 524, 2-(6-hydroxy-2,7-dimethylindazol-5-yl)-6-(piperazin-1-yl) quinazoline-4-carboxylic acid] | 1000 to 10000 | > 10000 | > 10000 | > 10000 | > 10000 | D (D represents greater than 10 μM in K562 cells)

The next lines start with results.

IC50 [1] [nM] | IC50 [2] [nM] | IC50 [3, 5] [nM] | IC50 [3, 6] [nM] | SMILES | AC50 ([3]; RT-qPCR) [nM] | Effect of Exemplary Compounds on Cell Viability, K562 [4]
< 100 | 100 to 1000 | < 100 | < 100 | CCNC(=O)c1nc(-c2cc3cn(C)nc3c(C)c2O)nc2ccc(N3CCNCC3)cc12 [Compound 503, N-ethyl-2-(6-hydroxy-2,7-dimethylindazol-5-yl)-6-(piperazin-1-yl)quinazoline-4-carboxamide] | < 100 | A (A represents <100 nM)
< 100 | 100 to 1000 | 100 to 1000 | 100 to 1000 | CNC(=O)c1nc(-c2cc(F)c3nc(C)cn3c2)nc2ccc(N3CCNCC3)cc12 [Compound 505, 2-{8-fluoro-2-methylimidazo[1,2-a]pyridin-6-yl}-N-methyl-6-(piperazin-1-yl) quinazoline-4-carboxamide] | 100 to 1000 | B (B represents 100-1000 nM)
< 100 | 1000 to 10000 | 100 to 1000 | 100 to 1000 | Cn1cc2cc(-c3nc(C#N)c4cc(N5CCNCC5)ccc4n3)c(O)c(F)c2n1 [Compound 514, 2-(7-fluoro-6-hydroxy-2-methylindazol-5-yl)-6-(piperazin-1-yl) quinazoline-4-carbonitrile; trifluoroacetic acid] | 1000 to 10000 | A (A represents <100 nM)
< 100 | 100 to 1000 | 100 to 1000 | 100 to 1000 | Cc1cn2cc(-c3ccc4cc(N5CCNCC5)cc(F)c4n3)cc(F)c2n1 [Compound 517, 8-fluoro-2-{8-fluoro-2-methylimidazo[1,2-a]pyridin-6-yl}-6-(piperazin-1-yl)quinoline] | 100 to 1000 | A (A represents <100 nM)
< 100 | > 10000 | 1000 to 10000 | 1000 to 10000 | Cn1cc2cc(-c3nc(C4CC4)c4cc(N5CCNCC5)ccc4n3)c(O)c(F)c2n1 [Compound 518, 5-[4-cyclopropyl-6-(piperazin-1-yl)quinazolin-2-yl]-7-fluoro-2-methylindazol-6-ol; trifluoroacetic acid] | 1000 to 10000 | B (B represents 100-1000 nM)
< 100 | > 10000 | > 10000 | > 10000 | Cc1c(O)c(-c2nc(-c3cncs3)c3cc(N4CCNCC4)ccc3n2)cc2cn(C)nc12 [Compound 519, 2,7-dimethyl-5-[6-(piperazin-1-yl)-4-(1,3-thiazol-5-yl)quinazolin-2-yl]indazol-6-ol] | > 10000 | B (B represents 100-1000 nM)
< 100 | > 10000 | 1000 to 10000 | 1000 to 10000 | Cc1c(O)c(-c2nc(-c3nnc[nH]3)c3cc(N4CCNCC4)ccc3n2)cc2cn(C)nc12 [Compound 522, 2,7-dimethyl-5-[6-(piperazin-1-yl)-4-(4H-1,2,4-triazol-3-yl)quinazolin-2-yl]indazol-6-ol; bis(trifluoroacetic acid)] | > 10000 | C (C represents 1000-9999 nM)
< 100 | 1000 to 10000 | 100 to 1000 | 100 to 1000 | Cc1c(O)c(-c2nc(C(N)=O)c3cc(N4CCNCC4)ccc3n2)cc2cn(C)nc12 [Compound 523, 2-(6-hydroxy-2,7-dimethylindazol-5-yl)-6-(piperazin-1-yl) quinazoline-4-carboxamide] | 100 to 1000 | A (A represents <100 nM)
< 100 | 1000 to 10000 | 100 to 1000 | 100 to 1000 | Cc1c(O)c(-c2ncc3cc(N4C[C@@H](C)N[C@@H](C)C4)ccc3n2)cc2cn(C)nc12 [Compound 525, 5-{6-[(3R,5S)-3,5-dimethylpiperazin-1-yl]quinazolin-2-yl}-2,7-dimethylindazol-6-ol] | 100 to 1000 | B (B represents 100-1000 nM)
